Test results: patent US20040235761A1, “Novel virus proliferaton inhibition/virucidal method and novel pyradine nucleotide/pyradine nucleoside analogue” (priority 2001, published 2004)

How the values were obtained:
[1] = test system: MDCK cells; experiment: Detection of phosphate compound in cell (Test Example 1); type: in vitro ADME; conditions: 35° C., 20 hours, HPLC with radioactivity detector
Experimental: 5 ml of an E′-MEM culture medium (containing 1% bovine serum albumin and 3% vitamin solution) containing a compound, 6-fluoro-3-hydroxy-2-[2-^14C]pyrazinecarboxamide, which ha-d been ^14C-labeled at position 2 of the pyrazine ring, was added to MDCK cells that had been monolayer-cultured on a 55 cm^2 culture plate. After completion of culture under conditions of 35° C. and 5% CO2 for 20 hours, 6-fluoro-3-hydroxy-2-[2-^14C]pyrazinecarboxamide and a converted compound were extracted from cell fractions, using a 66.6% acetonitrile solution. The extract was lyophilized and concentrated, and then analysis was carried out under the HPLC analysis conditions indicated below.

[2] = test system: bovine diarrhea virus (BVDV) NADL; experiment: Anti-BVDV effect (plaque inhibition in MDBK cells); type: cell-based; conditions: Bovine viral diarrhea virus isolates and strains, 72 h, 100 μg/mL test compound, 70 PFU/well, 3 days, read-out: Inhibition rate (plaque inhibition rate)
Experimental: MDBK cells that had fully grown in a 6-well culture plate were infected with bovine diarrhea virus (BVDV) NADL at 70 PFU/well. After 60 minutes, the infection solution was removed, and a test culture solution (E′-MEM) containing 5% horse serum and 1% agar (SeaPlaque Agar) that contained a 100 μg/mL test compound was added thereto. The mixture was fully solidified and then cultured for 3 days under conditions of 37° C., a humidity of 100% and 5% CO2. After completion of the culture, the test plate was fixed with a 3% formaldehyde solution, and the agar medium was removed with running water, followed by staining with a 1% crystal violet solution, so as to count the number of plaques. The plaque inhibition rate was expressed by the percentage obtained by comparing with a control to which no test compounds were added.

[3] = test system: MDCK cells; experiment: Detection of deprotected compound in cell (Test Example 2); type: in vitro ADME; conditions: 37° C., 1 hour, HPLC
Experimental: The compound of Example 2 was added to MDCK cells suspended in a Hank's balanced salt solution, and the mixture was incubated at 37° C. for 1 hour. Thereafter, the obtained product was layered on silicon oil (KF-99), followed by centrifugation at 4° C. Cell fractions from the precipitate were suspended and frozen-thawed in a mobile phase indicated below, and the obtained solution was analyzed under the HPLC analysis conditions indicated below.

[4] = test system: influenza virus A/PR/8/34; experiment: Anti-influenza effect (plaque inhibition in MDCK cells); type: cell-based; conditions: PR/8, MDCK, 72 h, read-out: Inhibition rate (plaque inhibition rate)
[5] = Stability during the process of pharmaceutical preparation; type: physicochemical; conditions: compared with anhydrides
[6] = mouse, in vivo, 300 mg/kg
Experimental: Compound A was administered into the caudal vein of a mouse at a dose of 300 mg/kg. 30 minutes after the administration, 1.6 g of the liver was excised, and it was then ground under ice cooling, while adding thereto 22.5 mL of 70% methanol that had been cooled to −20° C., so that compound A and a phosphate(s) form were extracted. 10 mL of the supernatant of the extract centrifuged at 4° C. for 10 minutes was purified under the condition indicated below, using a solid extraction cartridge (Varian BOND ELUT SAX HF 2 g/12 mL; eluted with 0.01 M to 1.0 M KCl) pretreated with 12 mL of methanol and 12 mL each of 1.0 M and 0.005 M KCl.
The phosphate form contained in 5 mL of No. 3 0.05 M KCl eluate and a synthetic monophosphate compound (a compound obtained in Reference Example 30) were identical in terms of HPLC retention time and UV spectrum in HPLC analysis (HPLC-1) described in HPLC conditions. In addition, the phosphate form contained in 5 mL of No. 1 0.5 M KCl eluate and a synthetic diphosphate compound (a compound obtained in Reference Example 31) were identical in terms of HPLC retention time in HPLC analysis (HPLC-2) described in HPLC conditions. […]

[7] = test system: MDBK cells; experiment: Detection of triphosphate compound in cell by addition of compound A; type: in vitro ADME; conditions: 37° C., 24 hours
Experimental: 10 ml of an E′-MEM culture medium (containing 0.5% fetal bovine serum) containing compound A was added to MDBK cells that had been monolayer-cultured on a 55 cm^2 culture plate. After completion of culture under conditions of 37° C. and 5% CO2 for 24 hours, the culture was removed using a cell scraper, and the culture medium was removed by centrifugation. Thereafter, 5% trichloroacetic acid was added to the obtained cell fractions, so that a converted compound was extracted. An equal amount of 20% trioctylamine-containing pentane was added to the extract, and the obtained water layer was then concentrated using a centrifugal concentrator. In the above concentrate, a component whose HPLC retention time matches that of a synthetic compound of triphosphates (a compound obtained in Reference Example 22) was detected.

## NC(=O)[14c]1nc(F)cnc1O [6-fluoro-3-hydroxy-2-[2-^14C] pyrazinecarboxamide]
[1]
  monophosphate (Reference Example 15) and triphosphate (Reference Example 16) in cell fractions: detected

## CC(C)(C)C(=O)SCCOP(=O)(OCCSC(=O)C(C)(C)C)OC[C@H]1O[C@@H](n2ccnc(C(N)=O)c2=O)[C@H](O)[C@@H]1O [Example 2, 2,2-dimethyl-thiopropionic acid S-(2-[[(2R,3S,4R,5R)-5-(3-carbamoyl-2-oxo-2H-pyrazine-1-yl)-3,4-dihydroxy-tetrahydro-furan-2-ylmethoxy]-[2-(2,2-dimethyl-propionylsulfanyl)-ethoxy]-phosphoryloxy]-ethyl) ester]
[2]
  inhibition at 100 µg/mL: 100%
[3]
  monophosphate as deprotected compound in cell fractions: detected
[4]
  inhibition at 100 µg/mL: 100%

## NC(=O)c1nccn([C@@H]2O[C@H](CO)[C@@H](O)[C@H]2O)c1=O.O [Example 29 (2), 4-[(2R,3R,4S,5R)-3,4-dihydroxy-5-(hydroxymethyl)tetrahydro-2-furanyl]-3-oxo-3,4-dihydro-2-pyrazinecarboxamide monohydrate]
[5]
  stability during the process of pharmaceutical preparation: excellent stability

## NC(=O)c1nccn([C@@H]2O[C@H](CO)[C@@H](O)[C@H]2O)c1=O [Example 29, 4-[(2R,3R,4S,5R)-3,4-dihydroxy-5-(hydroxymethyl)tetrahydro-2-furanyl]-3-oxo-3,4-dihydro-2-pyrazinecarboxamide]
[6]
  conversion into phosphate forms in the liver: converted in vivo into a monophosphate, then into a diphosphate form, and then into a triphosphate
[2]
  inhibition at 100 µg/mL: 100%
[7]
  component whose HPLC retention time matches the synthetic triphosphate (Reference Example 22) in cell extract: detected
[4]
  inhibition at 100 µg/mL: 100%
